Test results taken from ChEMBL document CHEMBL1201862, “PubChem BioAssay data set” (2004).
Activity calls are given as the source filed them.

Tests used:
[1] = target: Lysine-specific demethylase 4A (Homo sapiens, UniProt O75164); assay: JMJD2A histone demethylase inhibitors, dose response, selectivity assay for GASC-1 inhibitor project, biochemical, DELFIA europium, cherry-picked samples (AID 488840)
Bcl-2-related protein A1 = target: T1, Bcl-2-related protein A1 (Mus musculus, UniProt Q07440); format: functional;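 also: confirmatory dose–response counterscreen on Bfl-1, used to check hits from a UBC13 polyubiquitin inhibitor campaign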
T1 sequence (Q07440 whole entry): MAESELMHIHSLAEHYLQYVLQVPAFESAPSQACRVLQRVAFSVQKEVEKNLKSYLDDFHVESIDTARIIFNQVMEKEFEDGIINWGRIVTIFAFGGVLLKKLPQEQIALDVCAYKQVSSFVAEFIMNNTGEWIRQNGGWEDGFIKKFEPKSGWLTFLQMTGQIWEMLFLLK

[2] = target: T2, Ubiquitin-conjugating enzyme E2 N (Homo sapiens, UniProt P61088); format: functional
T2 sequence (P61088 whole entry): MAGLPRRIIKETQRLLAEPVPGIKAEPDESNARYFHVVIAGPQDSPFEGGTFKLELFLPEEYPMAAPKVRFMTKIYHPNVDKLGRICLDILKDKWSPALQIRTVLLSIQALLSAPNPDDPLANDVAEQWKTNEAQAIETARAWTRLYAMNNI

[3] = target: T2, Ubiquitin-conjugating enzyme E2 N; format: functional; remark: listed apart in the source
[4] = target: T3, RNA-binding protein pos-1 (Caenorhabditis elegans, UniProt G5EF15); assay: inhibitors of POS-1/mex-3 RNA binding, dose response, biochemical, fluorescence polarization (AID 1964);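 also: purified POS-1 fused to maltose binding protein made in E. coli; potency of compounds blocking POS-1 binding to fluorescent RNA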
T3 sequence (G5EF15 whole entry): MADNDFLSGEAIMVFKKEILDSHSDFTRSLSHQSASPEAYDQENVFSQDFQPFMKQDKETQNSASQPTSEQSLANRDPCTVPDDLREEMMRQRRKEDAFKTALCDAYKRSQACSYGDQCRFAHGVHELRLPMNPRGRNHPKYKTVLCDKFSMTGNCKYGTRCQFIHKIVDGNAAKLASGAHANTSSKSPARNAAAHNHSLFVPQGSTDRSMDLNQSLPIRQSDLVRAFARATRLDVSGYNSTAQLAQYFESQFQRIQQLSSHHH

[5] = target: T4, Zinc finger protein mex-5 (Caenorhabditis elegans, UniProt Q9XUB2); assay: MEX-5/TCR-2 RNA interaction inhibitors, dose response, biochemical, C. elegans, fluorescence polarization (AID 1960)
T4 sequence (Q9XUB2 whole entry): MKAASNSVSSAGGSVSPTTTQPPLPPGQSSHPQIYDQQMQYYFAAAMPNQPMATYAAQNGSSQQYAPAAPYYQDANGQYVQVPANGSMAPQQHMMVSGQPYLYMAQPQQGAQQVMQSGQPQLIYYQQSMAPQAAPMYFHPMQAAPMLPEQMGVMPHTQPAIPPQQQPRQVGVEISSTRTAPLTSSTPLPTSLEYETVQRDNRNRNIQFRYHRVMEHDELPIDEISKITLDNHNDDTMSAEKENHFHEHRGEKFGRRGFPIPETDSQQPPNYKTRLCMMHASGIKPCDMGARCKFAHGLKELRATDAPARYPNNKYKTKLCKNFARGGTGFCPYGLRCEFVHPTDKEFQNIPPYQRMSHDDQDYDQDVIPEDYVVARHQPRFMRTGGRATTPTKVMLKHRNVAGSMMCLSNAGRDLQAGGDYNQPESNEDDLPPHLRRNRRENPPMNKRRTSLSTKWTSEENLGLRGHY

[6] = target: Intestinal-type alkaline phosphatase (Mus musculus, UniProt P24822); assay: PubChem AID 488785; format: functional
Intestinal-type alkaline phosphatase (Mus musculus, UniProt P24822), sequence (P24822 whole entry): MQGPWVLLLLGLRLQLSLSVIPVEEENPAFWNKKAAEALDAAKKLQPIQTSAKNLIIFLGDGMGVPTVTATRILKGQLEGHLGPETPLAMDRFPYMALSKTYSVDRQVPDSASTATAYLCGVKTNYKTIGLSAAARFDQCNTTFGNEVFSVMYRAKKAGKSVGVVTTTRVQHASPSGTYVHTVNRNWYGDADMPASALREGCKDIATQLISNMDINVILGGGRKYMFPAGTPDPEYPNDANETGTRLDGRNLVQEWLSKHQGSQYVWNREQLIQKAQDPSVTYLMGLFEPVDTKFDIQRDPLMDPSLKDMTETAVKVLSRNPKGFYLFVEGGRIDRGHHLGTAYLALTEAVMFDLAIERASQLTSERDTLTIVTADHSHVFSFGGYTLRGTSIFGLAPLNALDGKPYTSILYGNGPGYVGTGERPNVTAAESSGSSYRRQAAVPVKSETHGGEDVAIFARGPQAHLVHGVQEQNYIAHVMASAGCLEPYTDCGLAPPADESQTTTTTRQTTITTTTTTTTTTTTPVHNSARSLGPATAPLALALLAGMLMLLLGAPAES

[7] = target: T5, Alkaline phosphatase, tissue-nonspecific isozyme (Homo sapiens, UniProt P05186); assay: TNAP enzyme inhibition by screening hits, dose response, selectivity assay for mouse IAP inhibitor project, biochemical, human TNAP, uHTS hits (AID 488906); format: functional
T5 sequence (P05186 whole entry): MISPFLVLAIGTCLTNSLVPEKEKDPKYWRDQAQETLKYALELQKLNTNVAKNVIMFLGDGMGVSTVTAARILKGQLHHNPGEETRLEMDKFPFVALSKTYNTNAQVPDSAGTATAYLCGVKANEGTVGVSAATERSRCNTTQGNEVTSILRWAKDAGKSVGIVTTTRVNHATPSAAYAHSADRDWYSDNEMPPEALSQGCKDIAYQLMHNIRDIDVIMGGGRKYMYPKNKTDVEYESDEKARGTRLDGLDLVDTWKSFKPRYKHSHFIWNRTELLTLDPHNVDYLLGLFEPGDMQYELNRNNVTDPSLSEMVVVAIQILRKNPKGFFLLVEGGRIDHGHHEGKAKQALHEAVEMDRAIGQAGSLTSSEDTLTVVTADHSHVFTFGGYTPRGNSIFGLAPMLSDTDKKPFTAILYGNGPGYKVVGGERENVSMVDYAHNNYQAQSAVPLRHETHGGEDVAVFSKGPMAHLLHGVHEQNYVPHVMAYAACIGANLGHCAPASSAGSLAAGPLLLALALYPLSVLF

[8] = target: Intestinal-type alkaline phosphatase (Homo sapiens, UniProt P09923); assay: inhibition of human intestinal alkaline phosphatase – biochemical, dose response (AID 488876); format: functional
[9] = target: Dual specificity tyrosine-phosphorylation-regulated kinase 1A (Rattus norvegicus, UniProt Q63470); format: biochemical, Homo sapiens
[10] = target: Long-chain-fatty-acid--AMP ligase FadD28 (Mycobacterium tuberculosis, UniProt P9WQ59); assay: Fluorescence polarization aasay to screen for inhibitors that compete for the binding of FadD28 to a bisubstrate Measured in Biochemical System Using Plate Reader - 2147-01_Inhibitor_Dose_CherryPick_Activity.; format: functional, Mycobacterium tuberculosis H37Rv
Long-chain-fatty-acid--AMP ligase FadD28, sequence (P9WQ59 whole entry): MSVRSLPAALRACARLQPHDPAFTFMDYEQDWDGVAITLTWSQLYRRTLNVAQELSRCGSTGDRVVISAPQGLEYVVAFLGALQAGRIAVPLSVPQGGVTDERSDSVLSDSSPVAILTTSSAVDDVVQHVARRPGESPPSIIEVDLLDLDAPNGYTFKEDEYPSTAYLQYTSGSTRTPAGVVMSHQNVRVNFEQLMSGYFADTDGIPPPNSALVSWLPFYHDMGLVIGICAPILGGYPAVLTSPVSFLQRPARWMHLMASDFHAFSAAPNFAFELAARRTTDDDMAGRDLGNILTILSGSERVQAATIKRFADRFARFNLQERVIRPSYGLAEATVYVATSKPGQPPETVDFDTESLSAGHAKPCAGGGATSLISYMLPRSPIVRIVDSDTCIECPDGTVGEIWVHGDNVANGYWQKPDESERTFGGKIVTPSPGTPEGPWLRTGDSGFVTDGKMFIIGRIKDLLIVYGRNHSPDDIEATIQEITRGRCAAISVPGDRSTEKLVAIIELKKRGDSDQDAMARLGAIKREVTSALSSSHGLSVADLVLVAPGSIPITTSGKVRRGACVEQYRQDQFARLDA

[11] = target: Lysine-specific demethylase 4C (Homo sapiens, UniProt Q9H3R0); assay: GASC-1 (JMJD2C) histone demethylase inhibitors, dose response, biochemical, DELFIA europium, cherry-picked samples (AID 488835); format: functional
Lysine-specific demethylase 4C, sequence (Q9H3R0 whole entry): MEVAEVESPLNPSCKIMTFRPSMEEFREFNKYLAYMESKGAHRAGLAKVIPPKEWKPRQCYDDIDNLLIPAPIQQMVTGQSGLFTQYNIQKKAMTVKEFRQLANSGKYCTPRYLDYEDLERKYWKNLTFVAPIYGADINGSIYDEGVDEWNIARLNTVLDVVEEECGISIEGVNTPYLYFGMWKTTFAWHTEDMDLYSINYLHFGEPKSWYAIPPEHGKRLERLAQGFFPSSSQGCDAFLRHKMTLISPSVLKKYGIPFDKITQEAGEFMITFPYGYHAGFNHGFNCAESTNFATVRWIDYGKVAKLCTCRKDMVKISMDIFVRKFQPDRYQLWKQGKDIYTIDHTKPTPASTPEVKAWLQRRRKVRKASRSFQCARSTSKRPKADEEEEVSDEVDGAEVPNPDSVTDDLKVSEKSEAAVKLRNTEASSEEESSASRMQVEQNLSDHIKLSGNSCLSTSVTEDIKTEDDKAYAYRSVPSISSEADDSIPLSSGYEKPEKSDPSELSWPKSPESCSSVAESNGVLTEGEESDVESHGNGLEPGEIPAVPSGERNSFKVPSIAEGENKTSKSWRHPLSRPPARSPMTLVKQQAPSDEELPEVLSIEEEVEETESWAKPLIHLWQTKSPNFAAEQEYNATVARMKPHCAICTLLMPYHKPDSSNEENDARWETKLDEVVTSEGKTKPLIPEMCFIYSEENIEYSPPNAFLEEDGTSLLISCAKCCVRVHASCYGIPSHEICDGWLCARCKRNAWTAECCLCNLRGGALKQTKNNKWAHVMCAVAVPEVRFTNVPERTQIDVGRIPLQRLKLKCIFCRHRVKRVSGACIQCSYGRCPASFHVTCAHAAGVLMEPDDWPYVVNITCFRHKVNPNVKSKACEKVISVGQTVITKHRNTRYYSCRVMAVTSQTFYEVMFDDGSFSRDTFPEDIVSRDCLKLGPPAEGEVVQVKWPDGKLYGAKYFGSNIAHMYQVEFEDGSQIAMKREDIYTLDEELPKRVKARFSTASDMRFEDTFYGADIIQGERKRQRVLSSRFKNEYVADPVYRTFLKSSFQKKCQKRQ

[12] = target: T6, Tyrosine-protein phosphatase non-receptor type 7 (Homo sapiens, UniProt P35236); format: functional
T6 sequence (P35236 whole entry): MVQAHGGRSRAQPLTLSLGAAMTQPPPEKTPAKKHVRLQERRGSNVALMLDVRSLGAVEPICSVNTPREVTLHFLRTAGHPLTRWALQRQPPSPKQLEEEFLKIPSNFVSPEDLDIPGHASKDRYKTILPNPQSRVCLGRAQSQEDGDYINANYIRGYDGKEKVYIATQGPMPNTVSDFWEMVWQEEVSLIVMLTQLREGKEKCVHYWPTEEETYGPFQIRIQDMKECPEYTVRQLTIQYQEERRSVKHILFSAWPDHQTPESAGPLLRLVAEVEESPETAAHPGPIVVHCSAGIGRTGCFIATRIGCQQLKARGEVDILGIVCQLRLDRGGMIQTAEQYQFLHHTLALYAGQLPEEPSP

[13] = target: T7, Tyrosine-protein phosphatase non-receptor type 22 (Homo sapiens, UniProt Q9Y2R2); format: functional
T7 sequence (Q9Y2R2 whole entry): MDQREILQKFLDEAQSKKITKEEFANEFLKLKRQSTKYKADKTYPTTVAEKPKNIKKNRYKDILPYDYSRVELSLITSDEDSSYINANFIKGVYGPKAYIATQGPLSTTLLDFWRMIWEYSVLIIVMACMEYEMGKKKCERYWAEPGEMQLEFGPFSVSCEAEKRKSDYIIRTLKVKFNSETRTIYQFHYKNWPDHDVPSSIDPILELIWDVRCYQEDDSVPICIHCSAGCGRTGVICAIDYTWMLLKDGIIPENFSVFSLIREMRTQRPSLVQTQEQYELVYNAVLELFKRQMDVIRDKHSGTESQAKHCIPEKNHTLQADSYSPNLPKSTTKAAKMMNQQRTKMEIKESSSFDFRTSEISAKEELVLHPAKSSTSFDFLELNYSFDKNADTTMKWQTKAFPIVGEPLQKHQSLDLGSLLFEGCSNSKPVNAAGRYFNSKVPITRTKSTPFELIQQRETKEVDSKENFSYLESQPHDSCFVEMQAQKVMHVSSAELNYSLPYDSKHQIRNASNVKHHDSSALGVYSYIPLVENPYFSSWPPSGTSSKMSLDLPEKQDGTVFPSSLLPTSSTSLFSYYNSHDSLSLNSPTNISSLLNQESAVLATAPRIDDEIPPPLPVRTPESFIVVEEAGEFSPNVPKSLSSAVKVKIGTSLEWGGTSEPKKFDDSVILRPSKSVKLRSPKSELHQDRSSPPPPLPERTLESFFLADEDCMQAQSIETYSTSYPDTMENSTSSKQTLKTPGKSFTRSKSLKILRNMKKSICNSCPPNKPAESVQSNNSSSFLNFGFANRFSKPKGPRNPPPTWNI

[14] = target: T7, Tyrosine-protein phosphatase non-receptor type 22; format: functional; remark: listed apart in the source
[15] = target: T8, Corticotropin-releasing factor receptor 2/Corticotropin-releasing factor-binding protein (Homo sapiens, UniProt P24387+Q13324); assay: activators of CRF receptor 2 with binding protein – uHTS hits, confirmation (AID 602473); format: functional; settings: read-out: EC50_Mean
T8 sequence (Q13324 whole entry): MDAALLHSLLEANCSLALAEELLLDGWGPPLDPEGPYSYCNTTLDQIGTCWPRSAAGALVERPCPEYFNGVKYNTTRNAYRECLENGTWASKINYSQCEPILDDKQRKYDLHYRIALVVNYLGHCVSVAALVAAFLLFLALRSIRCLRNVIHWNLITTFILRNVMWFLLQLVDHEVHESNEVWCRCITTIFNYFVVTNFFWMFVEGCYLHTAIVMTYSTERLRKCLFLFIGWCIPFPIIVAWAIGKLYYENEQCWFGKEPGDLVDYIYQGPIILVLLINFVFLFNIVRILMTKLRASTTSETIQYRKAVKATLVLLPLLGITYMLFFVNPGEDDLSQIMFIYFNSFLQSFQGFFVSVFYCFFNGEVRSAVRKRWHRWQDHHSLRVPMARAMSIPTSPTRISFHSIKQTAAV
T8 sequence (P24387 whole entry): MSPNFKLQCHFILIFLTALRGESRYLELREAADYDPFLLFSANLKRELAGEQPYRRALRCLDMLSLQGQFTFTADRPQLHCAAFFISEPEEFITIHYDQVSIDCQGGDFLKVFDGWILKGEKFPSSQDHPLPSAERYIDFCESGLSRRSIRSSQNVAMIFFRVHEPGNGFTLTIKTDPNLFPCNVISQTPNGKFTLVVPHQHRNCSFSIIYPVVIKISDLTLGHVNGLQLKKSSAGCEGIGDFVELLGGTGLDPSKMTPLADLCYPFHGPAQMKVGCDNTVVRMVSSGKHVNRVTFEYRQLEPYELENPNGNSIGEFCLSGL

[16] = target: Protein-arginine deiminase type-4 (Homo sapiens, UniProt Q9UM07); assay: human PAD4 inhibitor potency, dose response, biochemical, fluorescence readout (AID 492970)
Protein-arginine deiminase type-4, sequence (Q9UM07 whole entry): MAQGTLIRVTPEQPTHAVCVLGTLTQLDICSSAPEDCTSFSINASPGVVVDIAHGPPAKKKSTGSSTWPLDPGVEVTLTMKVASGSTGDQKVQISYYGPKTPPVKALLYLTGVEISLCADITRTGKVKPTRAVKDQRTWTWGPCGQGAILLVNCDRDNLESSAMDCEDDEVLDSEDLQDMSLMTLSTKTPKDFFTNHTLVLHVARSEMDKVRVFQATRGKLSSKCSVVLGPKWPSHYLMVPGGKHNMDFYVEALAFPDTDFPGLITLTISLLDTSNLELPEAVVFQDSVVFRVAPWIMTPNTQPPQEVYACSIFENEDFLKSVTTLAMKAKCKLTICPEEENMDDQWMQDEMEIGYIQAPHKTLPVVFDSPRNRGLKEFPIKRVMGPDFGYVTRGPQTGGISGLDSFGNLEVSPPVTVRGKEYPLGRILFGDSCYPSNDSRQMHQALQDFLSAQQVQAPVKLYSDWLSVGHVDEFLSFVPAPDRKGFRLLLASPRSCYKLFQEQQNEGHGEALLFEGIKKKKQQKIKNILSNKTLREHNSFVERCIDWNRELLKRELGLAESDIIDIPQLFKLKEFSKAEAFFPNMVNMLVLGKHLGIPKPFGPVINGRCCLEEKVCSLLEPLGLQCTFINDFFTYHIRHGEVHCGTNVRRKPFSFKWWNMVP

Trypsin = Trypsin (Sus scrofa, UniProt P00761); assay: porcine trypsin inhibitors, dose response, selectivity assay for Rce1 protease inhibitor project, biochemical, quenched peptide fluorescence, cherry-pick (AID 488789)
Trypsin, sequence (P00761 whole entry): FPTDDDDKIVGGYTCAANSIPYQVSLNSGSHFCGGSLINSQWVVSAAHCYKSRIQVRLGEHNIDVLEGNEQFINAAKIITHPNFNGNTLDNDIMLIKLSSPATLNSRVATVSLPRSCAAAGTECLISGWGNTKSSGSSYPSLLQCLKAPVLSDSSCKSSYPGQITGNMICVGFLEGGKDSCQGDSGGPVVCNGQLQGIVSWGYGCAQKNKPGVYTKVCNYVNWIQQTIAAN

CAAX prenyl protease 1 = CAAX prenyl protease 1 (Saccharomyces cerevisiae S288c, UniProt P47154); assay: Ste24 protease inhibitors, dose response, biochemical, S. cerevisiae, plate reader, cherry-pick (AID 488815)
CAAX prenyl protease 1, sequence (P47154 whole entry): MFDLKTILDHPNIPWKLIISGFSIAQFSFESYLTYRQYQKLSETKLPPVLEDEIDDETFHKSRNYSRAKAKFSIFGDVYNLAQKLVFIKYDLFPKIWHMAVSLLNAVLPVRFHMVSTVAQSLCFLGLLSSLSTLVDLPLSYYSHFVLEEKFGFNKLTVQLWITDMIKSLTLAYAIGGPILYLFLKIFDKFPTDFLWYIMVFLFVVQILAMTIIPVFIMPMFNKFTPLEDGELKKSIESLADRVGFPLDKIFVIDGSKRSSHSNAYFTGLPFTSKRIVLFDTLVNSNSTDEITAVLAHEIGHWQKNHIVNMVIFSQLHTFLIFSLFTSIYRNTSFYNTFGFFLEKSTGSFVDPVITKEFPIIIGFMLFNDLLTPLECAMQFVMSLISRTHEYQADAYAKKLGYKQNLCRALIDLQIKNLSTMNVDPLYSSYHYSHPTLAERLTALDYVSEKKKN

CAAX prenyl protease 2 = target: T9, CAAX prenyl protease 2 (Homo sapiens, UniProt Q9Y256); assay: human Rce1 protease inhibitors, dose response, biochemical, yeast membranes, quenched-peptide fluorescence, cherry-pick (AID 588849)
T9 sequence (Q9Y256 whole entry): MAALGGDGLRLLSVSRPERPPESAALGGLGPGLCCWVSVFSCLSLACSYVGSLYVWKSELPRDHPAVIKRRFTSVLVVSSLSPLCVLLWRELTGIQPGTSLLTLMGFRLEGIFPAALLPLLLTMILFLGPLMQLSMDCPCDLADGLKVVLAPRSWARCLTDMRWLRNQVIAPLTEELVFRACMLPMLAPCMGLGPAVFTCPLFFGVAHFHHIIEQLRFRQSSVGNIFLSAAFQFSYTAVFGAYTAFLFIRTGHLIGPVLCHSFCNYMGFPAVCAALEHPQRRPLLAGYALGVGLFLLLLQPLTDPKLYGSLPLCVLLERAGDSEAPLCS

Lysine-specific demethylase 4A, sequence (O75164 whole entry): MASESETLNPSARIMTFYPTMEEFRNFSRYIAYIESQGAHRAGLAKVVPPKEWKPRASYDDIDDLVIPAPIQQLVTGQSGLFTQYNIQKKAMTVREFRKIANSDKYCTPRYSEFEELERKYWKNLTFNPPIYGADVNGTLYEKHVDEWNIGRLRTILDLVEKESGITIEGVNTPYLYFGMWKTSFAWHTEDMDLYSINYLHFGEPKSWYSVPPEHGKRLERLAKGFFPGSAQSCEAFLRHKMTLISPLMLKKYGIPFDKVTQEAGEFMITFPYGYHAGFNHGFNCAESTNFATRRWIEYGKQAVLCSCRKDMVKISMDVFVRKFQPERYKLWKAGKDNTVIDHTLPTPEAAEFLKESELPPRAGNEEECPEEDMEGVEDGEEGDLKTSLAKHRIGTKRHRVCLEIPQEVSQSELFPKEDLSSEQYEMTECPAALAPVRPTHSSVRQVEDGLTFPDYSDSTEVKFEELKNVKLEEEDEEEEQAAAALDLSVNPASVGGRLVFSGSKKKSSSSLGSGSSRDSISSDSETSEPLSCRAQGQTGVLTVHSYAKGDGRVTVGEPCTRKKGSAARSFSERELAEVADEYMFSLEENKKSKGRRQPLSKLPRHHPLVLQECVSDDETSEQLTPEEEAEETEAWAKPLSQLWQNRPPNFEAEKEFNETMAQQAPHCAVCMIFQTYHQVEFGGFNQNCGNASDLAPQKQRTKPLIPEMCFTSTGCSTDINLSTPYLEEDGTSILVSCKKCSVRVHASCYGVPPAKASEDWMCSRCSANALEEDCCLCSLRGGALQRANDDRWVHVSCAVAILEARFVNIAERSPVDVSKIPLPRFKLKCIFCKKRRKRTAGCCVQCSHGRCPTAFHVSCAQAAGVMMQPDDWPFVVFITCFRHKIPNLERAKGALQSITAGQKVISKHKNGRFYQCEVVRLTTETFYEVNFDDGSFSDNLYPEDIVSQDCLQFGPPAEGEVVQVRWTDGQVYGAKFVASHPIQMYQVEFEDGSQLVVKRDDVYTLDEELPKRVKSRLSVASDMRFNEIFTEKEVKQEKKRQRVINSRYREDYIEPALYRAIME

Cc1ccc(N(CC(=O)N2CCn3c2nc2ccccc23)S(=O)(=O)c2c(C)n[nH]c2C)cc1
AC50 [1]: 55.7 µM (active)

Cc1ccc(NC(=O)C2CCN(c3ncnc4c3nc3n4CCCCC3)CC2)cc1Cl
IC50 (Bcl-2-related protein A1): > 20 µM (inactive) | IC50 [2]: 16 µM (active) | IC50 [3]: 6.92 µM (active)

NS(=O)(=O)c1ccc(-c2ccc(/C=C3\NC(=S)NC3=O)o2)cc1
EC50 [4]: 21.7 µM (inconclusive) | EC50 [5]: 10.8 µM (inconclusive) | IC50 [6]: 9.48 µM (active) | IC50 [7]: 35.3 µM (active) | IC50 [8]: > 100 µM (inactive) | AC50 [9]: 18.3 µM (active) | AC50 [10]: 77.2 µM (active)

C=CCN1C(=O)NC(=O)/C(=C/c2ccoc2)C1=O
AC50 [11]: 22.2 µM (active)

c1ccc2c(CN3CCCCC3)csc2c1
IC50 [12]: > 79.4 µM (inactive) | IC50 [13]: > 79.4 µM (inactive) | IC50 [14]: > 79.4 µM (inactive) | EC50 [15]: 14.6 µM (active)

NNC(=O)/C(=C\c1ccco1)NC(=O)c1ccccc1
IC50 [16]: > 100 µM (inactive)

CCc1nnc(NC(=O)c2ccc(NS(=O)(=O)c3ccccc3)cc2)s1
AC50 (Trypsin): 45.1 µM (active) | AC50 (CAAX prenyl protease 1): 7.02 µM (active) | AC50 (CAAX prenyl protease 2): 5.24 µM (active)
